In patent US7074789B2, “Kinase inhibitors” (Amgen Inc., priority 1999, dated 2006):
Like-named read-outs stand apart in the source and are kept apart here.

Experiments:
Type in all cases: biochemical
Kdr = biological target: T1, Kdr (Homo sapiens, UniProt P35968); assay: Kinase inhibition assay (33P transfer), Kdr; conditions: read-out: KDR-1
T1 construct: Kinases are expressed as either kinase domains or full length constructs; made in house
Source text: (§1) The inhibitor compounds described herein are screened in the following manner. Kinases suitable for use in the following protocol to determine kinase activity of the compounds described herein include, -but are not limited to: Lck, Lyn, Src, Fyn, Syk, Zap-70, Itk, Tec, Btk, EGFR, ErbB2, Kdr, Flt-1, Flt-3, Tek, c-Met, InsR, and AKT.
(§2) Kinases are expressed as either kinase domains or full length constructs fused to glutathione S-transferase (GST) or polyHistidine tagged fusion proteins in either E. colior Baculovirus-High Five expression systems. […] In some instances, kinases are co-expressed or mixed with purified or partially purified regulatory polypeptides prior to measurement of activity.
(§3) Briefly, The transfer of ^33PO4 from ATP to the synthetic substrates poly(Glu, Tyr) 4:1 or poly(Arg, Ser) 3:1 attached to the bioactive surface of microtiter plates serves as the basis to evaluate enzyme activity. After an incubation period, the amount of phosphate transferred is measured by first washing the plate with 0.5% phosphoric acid, adding liquid scintillant, and then counting in a liquid scintillation detector.

Zap-70 = biological target: T2, Zap-70 (Homo sapiens, UniProt P43403); assay: Kinase inhibition assay (33P transfer), Zap-70; conditions: read-out: Zap-1
T2 construct: Kinases are expressed as either kinase domains or full length constructs; made in house
T2 sequence (P43403 1-619): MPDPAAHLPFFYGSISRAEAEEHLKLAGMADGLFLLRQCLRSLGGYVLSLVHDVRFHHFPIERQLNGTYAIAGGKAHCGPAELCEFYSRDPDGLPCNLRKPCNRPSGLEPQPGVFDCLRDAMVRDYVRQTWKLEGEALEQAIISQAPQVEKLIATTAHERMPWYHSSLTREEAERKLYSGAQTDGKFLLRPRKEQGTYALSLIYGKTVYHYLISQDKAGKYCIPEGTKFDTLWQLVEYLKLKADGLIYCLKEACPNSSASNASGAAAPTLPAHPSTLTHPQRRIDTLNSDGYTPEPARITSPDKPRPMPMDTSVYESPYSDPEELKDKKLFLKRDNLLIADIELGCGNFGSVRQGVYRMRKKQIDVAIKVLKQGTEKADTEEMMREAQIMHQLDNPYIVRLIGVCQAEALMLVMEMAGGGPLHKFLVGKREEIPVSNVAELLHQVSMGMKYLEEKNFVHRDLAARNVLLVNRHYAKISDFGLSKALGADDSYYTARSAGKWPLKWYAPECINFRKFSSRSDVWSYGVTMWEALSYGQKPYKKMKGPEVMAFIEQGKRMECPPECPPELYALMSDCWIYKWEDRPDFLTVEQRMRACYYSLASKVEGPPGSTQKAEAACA
Source text: as §1, §2, §3

Itk = biological target: T3, Itk (Homo sapiens, UniProt Q08881); assay: Kinase inhibition assay (33P transfer), Itk; conditions: read-out: Itk-1
T3 construct: Kinases are expressed as either kinase domains or full length constructs; made in house
T3 sequence (Q08881 1-620): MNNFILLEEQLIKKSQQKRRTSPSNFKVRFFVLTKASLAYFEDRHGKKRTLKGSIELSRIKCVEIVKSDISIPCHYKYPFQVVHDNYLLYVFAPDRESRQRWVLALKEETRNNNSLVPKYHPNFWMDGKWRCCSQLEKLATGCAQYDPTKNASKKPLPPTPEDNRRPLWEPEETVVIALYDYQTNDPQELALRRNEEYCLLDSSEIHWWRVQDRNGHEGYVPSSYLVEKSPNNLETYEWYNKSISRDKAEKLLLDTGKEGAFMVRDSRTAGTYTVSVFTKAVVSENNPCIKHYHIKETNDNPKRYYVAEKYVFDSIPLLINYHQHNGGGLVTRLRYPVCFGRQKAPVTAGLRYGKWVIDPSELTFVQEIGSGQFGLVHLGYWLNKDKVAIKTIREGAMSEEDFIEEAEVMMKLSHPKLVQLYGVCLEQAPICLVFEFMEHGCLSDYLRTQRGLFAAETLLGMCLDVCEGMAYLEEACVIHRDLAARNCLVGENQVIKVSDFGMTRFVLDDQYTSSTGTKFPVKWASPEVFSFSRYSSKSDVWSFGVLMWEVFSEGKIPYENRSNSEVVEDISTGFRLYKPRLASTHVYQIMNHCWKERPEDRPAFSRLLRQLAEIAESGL
Source text: as §1
(§4) Kinases are expressed as either kinase domains or full length constructs fused to glutathione S-transferase (GST) or polyHistidine tagged fusion proteins in either E. colior Baculovirus-High Five expression systems. They are purified to near homogeneity by affinity chromatography essentially as previously described (Lehr et al., 1996; Gish et al., 1995). In some instances, kinases are co-expressed or mixed with purified or partially purified regulatory polypeptides prior to measurement of activity.
as §3, with “Kinase activity and inhibition are measured essentially by established protocols (Braunwalder et al., 1996). Briefly,” for “Briefly,”, “detector. The IC50 is determined by the concentration of compound that causes a 50% reduction in the amount of […] incorporated onto the substrate bound to the plate.” for “detector.”

c-Met = biological target: T4, c-Met (Homo sapiens, UniProt P08581); assay: Kinase inhibition assay (33P transfer), c-Met; conditions: Table 2, kinase inhibition class; read-out: Met-1
T4 construct: Kinases are expressed as either kinase domains or full length constructs; made in house
T4 sequence (P08581 25-1390): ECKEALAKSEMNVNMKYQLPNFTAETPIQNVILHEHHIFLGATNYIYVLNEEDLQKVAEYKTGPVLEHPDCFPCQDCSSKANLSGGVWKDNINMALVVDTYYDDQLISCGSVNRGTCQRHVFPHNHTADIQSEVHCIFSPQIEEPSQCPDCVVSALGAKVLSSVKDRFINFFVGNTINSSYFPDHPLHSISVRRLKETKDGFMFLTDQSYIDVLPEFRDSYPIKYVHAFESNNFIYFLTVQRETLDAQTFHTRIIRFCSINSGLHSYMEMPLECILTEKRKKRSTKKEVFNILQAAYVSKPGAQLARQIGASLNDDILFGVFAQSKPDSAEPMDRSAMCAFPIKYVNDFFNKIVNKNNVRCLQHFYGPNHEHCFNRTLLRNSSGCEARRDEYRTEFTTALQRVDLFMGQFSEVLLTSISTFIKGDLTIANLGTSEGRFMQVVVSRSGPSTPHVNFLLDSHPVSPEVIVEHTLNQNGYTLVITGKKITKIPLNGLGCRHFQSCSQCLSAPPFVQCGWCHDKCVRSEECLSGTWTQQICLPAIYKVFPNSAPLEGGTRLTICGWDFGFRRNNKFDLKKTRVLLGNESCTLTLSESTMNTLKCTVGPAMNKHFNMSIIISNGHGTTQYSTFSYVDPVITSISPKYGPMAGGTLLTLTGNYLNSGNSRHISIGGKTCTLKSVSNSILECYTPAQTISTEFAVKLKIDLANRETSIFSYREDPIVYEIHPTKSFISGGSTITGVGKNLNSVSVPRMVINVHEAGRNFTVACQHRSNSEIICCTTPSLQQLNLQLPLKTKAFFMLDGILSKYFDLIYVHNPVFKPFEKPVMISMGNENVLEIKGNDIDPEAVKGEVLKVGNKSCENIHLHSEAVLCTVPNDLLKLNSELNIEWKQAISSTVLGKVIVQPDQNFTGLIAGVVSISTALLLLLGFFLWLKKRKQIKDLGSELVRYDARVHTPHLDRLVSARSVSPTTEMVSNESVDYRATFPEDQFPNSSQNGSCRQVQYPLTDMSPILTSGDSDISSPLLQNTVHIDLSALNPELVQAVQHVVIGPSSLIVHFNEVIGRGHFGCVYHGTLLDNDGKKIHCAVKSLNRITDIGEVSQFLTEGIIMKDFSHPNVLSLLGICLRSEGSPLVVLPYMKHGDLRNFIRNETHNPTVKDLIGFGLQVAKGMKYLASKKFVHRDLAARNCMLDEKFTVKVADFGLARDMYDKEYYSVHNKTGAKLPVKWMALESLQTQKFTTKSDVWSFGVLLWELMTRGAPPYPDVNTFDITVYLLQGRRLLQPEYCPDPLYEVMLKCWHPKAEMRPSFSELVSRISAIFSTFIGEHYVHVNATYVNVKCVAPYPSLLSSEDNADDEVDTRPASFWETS
Source text: as §1, §4
as §3, with “Kinase activity and inhibition are measured essentially by established protocols (Braunwalder et al., 1996). Briefly,” for “Briefly,”, “detector. The IC50 is determined by the concentration of compound that causes a 50% reduction in the amount of […] incorporated onto the substrate bound to the plate.” for “detector.”

Lck = biological target: T5, Lck (Homo sapiens, UniProt P06239); assay: Kinase inhibition assay (33P transfer), Lck; conditions: read-out: Lck-1
T5 construct: Kinases are expressed as either kinase domains or full length constructs; made in house
T5 sequence (P06239 whole entry, species assumed, the tested form may be a part): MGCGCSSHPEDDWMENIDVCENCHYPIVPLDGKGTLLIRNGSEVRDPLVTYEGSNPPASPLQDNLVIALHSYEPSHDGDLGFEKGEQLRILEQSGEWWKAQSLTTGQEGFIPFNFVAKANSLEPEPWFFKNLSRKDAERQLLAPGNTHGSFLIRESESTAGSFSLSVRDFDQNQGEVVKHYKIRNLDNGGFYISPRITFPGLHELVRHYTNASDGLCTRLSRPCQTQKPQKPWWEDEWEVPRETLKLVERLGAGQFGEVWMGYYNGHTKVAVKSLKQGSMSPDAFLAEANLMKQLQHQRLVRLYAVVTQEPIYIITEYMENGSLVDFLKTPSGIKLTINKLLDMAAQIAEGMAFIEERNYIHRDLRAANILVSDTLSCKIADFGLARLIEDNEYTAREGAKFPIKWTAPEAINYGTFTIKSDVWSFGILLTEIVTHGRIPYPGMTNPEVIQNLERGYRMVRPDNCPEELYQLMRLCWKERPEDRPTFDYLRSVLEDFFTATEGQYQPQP
Source text: as §1, §2, §3

EGFR = biological target: T6, EGFR (Homo sapiens, UniProt P00533); assay: Kinase inhibition assay (33P transfer), EGFR; conditions: Table 2, kinase inhibition class; read-out: EGFR-1
T6 construct: Kinases are expressed as either kinase domains or full length constructs; made in house
T6 sequence (P00533 25-1210, species assumed): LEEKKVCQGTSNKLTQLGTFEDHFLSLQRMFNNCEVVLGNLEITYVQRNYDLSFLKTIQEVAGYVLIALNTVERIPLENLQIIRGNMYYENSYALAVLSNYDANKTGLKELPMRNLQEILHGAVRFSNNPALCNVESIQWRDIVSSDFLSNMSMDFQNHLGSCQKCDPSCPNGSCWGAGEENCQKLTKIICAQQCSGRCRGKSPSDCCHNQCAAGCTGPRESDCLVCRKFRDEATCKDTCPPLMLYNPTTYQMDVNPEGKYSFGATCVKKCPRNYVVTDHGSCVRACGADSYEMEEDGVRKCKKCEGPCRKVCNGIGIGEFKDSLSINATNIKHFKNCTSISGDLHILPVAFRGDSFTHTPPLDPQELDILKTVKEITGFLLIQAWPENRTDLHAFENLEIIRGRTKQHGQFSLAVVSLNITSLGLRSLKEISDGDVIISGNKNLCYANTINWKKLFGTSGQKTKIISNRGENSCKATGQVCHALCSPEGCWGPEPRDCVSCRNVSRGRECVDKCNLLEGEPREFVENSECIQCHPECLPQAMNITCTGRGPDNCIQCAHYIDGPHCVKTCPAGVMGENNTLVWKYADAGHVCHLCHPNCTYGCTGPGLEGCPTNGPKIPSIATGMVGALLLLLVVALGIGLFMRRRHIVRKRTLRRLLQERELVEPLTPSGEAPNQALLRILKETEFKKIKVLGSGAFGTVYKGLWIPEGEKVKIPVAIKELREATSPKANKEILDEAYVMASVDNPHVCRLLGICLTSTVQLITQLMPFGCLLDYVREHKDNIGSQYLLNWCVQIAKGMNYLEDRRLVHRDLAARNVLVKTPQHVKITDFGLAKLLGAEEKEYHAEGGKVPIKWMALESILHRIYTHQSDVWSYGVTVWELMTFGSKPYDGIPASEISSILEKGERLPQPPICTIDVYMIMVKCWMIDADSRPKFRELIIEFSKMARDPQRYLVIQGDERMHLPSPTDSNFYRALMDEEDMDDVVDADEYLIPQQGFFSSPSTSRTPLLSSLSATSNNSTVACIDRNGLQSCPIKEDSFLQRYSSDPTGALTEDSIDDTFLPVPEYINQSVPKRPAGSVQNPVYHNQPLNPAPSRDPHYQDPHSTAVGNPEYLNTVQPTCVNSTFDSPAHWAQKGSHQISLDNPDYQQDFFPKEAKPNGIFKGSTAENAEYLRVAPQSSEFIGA
Source text: as §1, §4
as §3, with “Kinase activity and inhibition are measured essentially by established protocols (Braunwalder et al., 1996). Briefly,” for “Briefly,”, “detector. The IC50 is determined by the concentration of compound that causes a 50% reduction in the amount of […] incorporated onto the substrate bound to the plate.” for “detector.”

AKT = biological target: T7, AKT (Homo sapiens, UniProt Q9Y243); assay: Kinase inhibition assay (33P transfer), AKT; conditions: Table 2, kinase inhibition class; read-out: AKT3-1
T7 construct: Kinases are expressed as either kinase domains or full length constructs; made in house
T7 sequence (Q9Y243 whole entry, the tested form may be a part): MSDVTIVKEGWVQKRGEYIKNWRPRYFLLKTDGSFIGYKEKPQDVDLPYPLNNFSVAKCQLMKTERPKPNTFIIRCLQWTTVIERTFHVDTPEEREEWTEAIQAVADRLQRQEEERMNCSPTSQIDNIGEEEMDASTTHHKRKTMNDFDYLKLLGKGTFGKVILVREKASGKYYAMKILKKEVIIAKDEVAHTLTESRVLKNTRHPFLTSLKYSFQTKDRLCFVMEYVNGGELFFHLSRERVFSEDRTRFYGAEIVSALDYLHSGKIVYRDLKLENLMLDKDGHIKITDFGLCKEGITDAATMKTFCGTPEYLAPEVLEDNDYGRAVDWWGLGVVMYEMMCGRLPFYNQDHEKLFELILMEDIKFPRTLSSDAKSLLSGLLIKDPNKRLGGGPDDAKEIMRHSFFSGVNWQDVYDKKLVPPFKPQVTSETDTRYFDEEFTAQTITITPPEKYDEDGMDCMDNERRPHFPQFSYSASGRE
Source text: as §1, §2, §3

T1 sequence (P35968 20-1356, species assumed): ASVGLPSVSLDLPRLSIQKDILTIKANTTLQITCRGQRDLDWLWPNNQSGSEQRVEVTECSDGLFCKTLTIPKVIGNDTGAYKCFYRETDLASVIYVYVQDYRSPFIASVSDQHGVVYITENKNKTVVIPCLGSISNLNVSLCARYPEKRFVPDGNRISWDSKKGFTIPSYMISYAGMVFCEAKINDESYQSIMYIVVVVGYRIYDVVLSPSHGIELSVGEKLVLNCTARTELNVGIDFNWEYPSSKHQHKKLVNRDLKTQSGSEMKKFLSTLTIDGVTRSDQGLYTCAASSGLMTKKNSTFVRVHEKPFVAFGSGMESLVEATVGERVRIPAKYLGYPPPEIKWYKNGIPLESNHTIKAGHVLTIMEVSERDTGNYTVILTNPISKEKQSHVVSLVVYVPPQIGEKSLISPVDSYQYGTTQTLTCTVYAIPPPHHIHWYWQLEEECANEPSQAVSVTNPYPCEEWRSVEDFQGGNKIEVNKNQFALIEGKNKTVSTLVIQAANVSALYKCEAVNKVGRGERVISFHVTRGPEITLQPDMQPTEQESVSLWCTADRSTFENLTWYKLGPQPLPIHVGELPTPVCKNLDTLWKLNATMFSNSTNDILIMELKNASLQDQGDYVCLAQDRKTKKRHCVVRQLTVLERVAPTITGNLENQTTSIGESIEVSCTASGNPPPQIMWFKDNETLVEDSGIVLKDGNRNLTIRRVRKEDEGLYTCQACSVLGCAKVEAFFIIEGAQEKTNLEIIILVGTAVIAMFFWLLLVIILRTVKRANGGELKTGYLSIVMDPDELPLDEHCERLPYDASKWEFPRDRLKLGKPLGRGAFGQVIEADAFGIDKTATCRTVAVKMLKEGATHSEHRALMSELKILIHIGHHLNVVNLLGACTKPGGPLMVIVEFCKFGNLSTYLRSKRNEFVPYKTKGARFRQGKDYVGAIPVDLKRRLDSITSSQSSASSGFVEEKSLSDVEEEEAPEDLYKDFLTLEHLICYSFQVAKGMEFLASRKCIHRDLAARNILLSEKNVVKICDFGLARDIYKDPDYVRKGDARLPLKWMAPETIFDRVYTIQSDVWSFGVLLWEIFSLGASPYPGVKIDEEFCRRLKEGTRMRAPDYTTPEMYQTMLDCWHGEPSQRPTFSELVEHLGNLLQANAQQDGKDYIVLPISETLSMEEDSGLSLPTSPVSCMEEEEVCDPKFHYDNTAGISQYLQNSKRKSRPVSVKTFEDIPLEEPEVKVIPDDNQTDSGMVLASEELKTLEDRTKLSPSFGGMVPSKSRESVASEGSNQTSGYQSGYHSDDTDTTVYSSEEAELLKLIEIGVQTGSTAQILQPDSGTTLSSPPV

SMILES | IC50 (Kdr) [µM] | IC50 (Zap-70) [µM] | IC50 (Itk) [µM] | IC50 (c-Met) [µM] | IC50 (Lck) [µM] | IC50 (EGFR) [µM] | IC50 (AKT) [µM] | IC50 (Kdr; Table 3) [µM] | IC50 (Zap-70; Table 3) [µM] | IC50 (Itk; Table 3) [µM] | IC50 (Lck; Table 3) [µM]
COc1cc(Nc2ncnc(-c3cccnc3NCCN3CCCCC3)n2)cc(OC)c1OC [Compound 1079] | > 9.67 | > 9.67 | > 9.67 | > 9.67 | > 9.67 | > 9.67 | > 9.67 | – | – | – | –
CNc1ncnc(Nc2cc(OC)c(OC)c(OC)c2)n1 [Compound 409] | – | – | – | > 15.4 | – | > 15.4 | > 15.4 | > 15.4 | > 15.4 | > 15.4 | 12 to 15.4
CC(C)(C)c1cc(Nc2ncnc(Nc3cccc(C(N)=O)c3)n2)[nH]n1 [Compound 500] | 1.14 to 6.81 | > 12.8 | 1.14 to 6.81 | 1.14 to 6.81 | 1.14 to 6.81 | 1.14 to 6.81 | > 12.8 | – | – | – | –
O=c1[nH]c2ccccc2n1-c1ncnc(Nc2ccc3[nH]ncc3c2)n1 [Compound 685] | > 13.1 | > 13.1 | > 13.1 | > 13.1 | > 13.1 | > 13.1 | > 13.1 | – | – | – | –
COc1cc(Nc2ncnc(Nc3nc(C)cs3)n2)cc(OC)c1OC [Compound 468] | – | – | – | > 12 | – | 1.07 to 6.41 | > 12 | 1.07 to 6.41 | > 12 | > 12 | > 12
O=c1[nH]c2ccccc2n1-c1ncnc(Nc2ncccn2)n1 [Compound 490] | > 14.7 | > 14.7 | > 14.7 | > 14.7 | > 14.7 | > 14.7 | > 14.7 | – | – | – | –
CC[C@H]1CN(c2ccc(-c3ncnc(Nc4cc(OC)c(OC)c(OC)c4)n3)cn2)CCN1 [Compound 446] | – | – | – | > 9.97 | – | > 9.97 | > 9.97 | > 9.97 | > 9.97 | > 9.97 | > 9.97
COc1cc(Nc2ncnc(-c3ccnc(NCCCN)c3)n2)cc(OC)c1OC [Compound 45] | – | – | – | > 10.9 | – | > 10.9 | > 10.9 | > 10.9 | > 10.9 | > 10.9 | 0.972 to 5.83
NS(=O)(=O)c1ccc(Nc2ncnc(-n3c(=O)[nH]c4ccccc43)n2)cc1 [Compound 451] | – | – | – | > 11.7 | – | > 11.7 | 9.13 to 11.7 | 1.04 to 6.26 | > 11.7 | > 11.7 | 1.04 to 6.26
O=c1[nH]c2ccccc2n1-c1ncnc(Nc2ccncc2)n1 [Compound 488] | 1.31 to 7.86 | > 14.7 | > 14.7 | > 14.7 | > 14.7 | > 14.7 | > 14.7 | – | – | – | –
C=CCNc1ncccc1-c1ncnc(Nc2ccc(C(N)=O)cc2)n1 [Compound 1081] | < 1.15 | > 13 | > 13 | > 13 | 1.15 to 6.91 | > 13 | > 13 | – | – | – | –
CCOC(=O)C(Cc1cccc(Nc2ncnc(Nc3cc(-c4ccco4)n[nH]3)n2)c1)(NC(C)=O)C(=O)OCC [Compound 481] | 0.729 to 4.38 | > 8.2 | 6.38 to 8.2 | > 8.2 | > 8.2 | > 8.2 | > 8.2 | – | – | – | –
CCN(CC)CCCNc1ccc(-c2ncnc(Nc3cc(OC)c(OC)c(OC)c3)n2)cn1 [Compound 448] | – | – | – | > 9.62 | – | > 9.62 | > 9.62 | 5.13 to 7.49 | > 9.62 | > 9.62 | 0.855 to 5.13
CN(C)c1ccc(Nc2ncnc(-n3c(N)nc4ccccc43)n2)cc1 [Compound 527] | < 1.15 | > 13 | 1.15 to 6.93 | 1.15 to 6.93 | 1.15 to 6.93 | 6.93 to 10.1 | > 13 | – | – | – | –
CC(C)(C)c1cc(Nc2ncnc(Cl)n2)[nH]n1 [Compound 975] | > 17.8 | > 17.8 | > 17.8 | > 17.8 | > 17.8 | > 17.8 | > 17.8 | – | – | – | –
COc1cc(Nc2ncnc(-c3ccc(NCCCN)nc3)n2)cc(OC)c1OC [Compound 472] | 0.972 to 5.83 | > 10.9 | > 10.9 | > 10.9 | > 10.9 | > 10.9 | > 10.9 | – | – | – | –
NC(=O)[C@H](CO)Nc1ncnc(-n2c(=O)[nH]c3ccccc32)n1 [Compound 450] | – | – | – | > 14.3 | – | > 14.3 | > 14.3 | > 14.3 | > 14.3 | > 14.3 | > 14.3
O=c1[nH]c2ccccc2n1-c1ncnc(Nc2ccc3ccccc3c2)n1 [Compound 684] | 6.77 to 9.88 | > 12.7 | > 12.7 | > 12.7 | > 12.7 | > 12.7 | > 12.7 | – | – | – | –
COc1cc(Nc2ncnc(Nc3nc4ccccc4s3)n2)cc(OC)c1OC [Compound 469] | 0.975 to 5.85 | > 11 | > 11 | > 11 | > 11 | > 11 | > 11 | – | – | – | –
O=c1[nH]c2ccccc2n1-c1ncnc(Nc2ccccc2Cl)n1 [Compound 484] | > 13.3 | > 13.3 | > 13.3 | 7.08 to 10.3 | > 13.3 | 1.18 to 7.08 | > 13.3 | – | – | – | –
NS(=O)(=O)c1ccc(CNc2ncnc(-n3c(=O)[nH]c4ccccc43)n2)cc1 [Compound 456] | – | – | – | > 11.3 | – | > 11.3 | > 11.3 | > 11.3 | > 11.3 | > 11.3 | > 11.3
NC(=O)c1ccc(Nc2ncnc(-n3c(=O)[nH]c4ccccc43)n2)cc1 [Compound 419] | – | – | – | > 13 | – | > 13 | > 13 | 1.15 to 6.91 | > 13 | > 13 | > 13
O=c1[nH]c2ccccc2n1-c1ncnc(Nc2ccccc2)n1 [Compound 482] | < 1.31 | > 14.8 | > 14.8 | > 14.8 | > 14.8 | > 14.8 | > 14.8 | – | – | – | –
